Source: patent publication US9023407B2, “Plant extract for treating diabetes and process for making same” (Development Center for Biotechnology, priority 2012, dated 2015)
Marks after values point to notes of the source that are not given here.

Key:
Sprague-Dawley rats = test: Glucose tolerance test in normal rats; assay type: in vivo, rat; conditions: 10 mg/kg
Protocol: Twenty-six (26) Sprague-Dawley rats were divided into four groups: the placebo group (7 rats, to be administered with 10% Tween 20), the positive control group (7 rats, to be administered with glibenclamide), the 250 mg/kg HC group (6 rats, to be administered with 250 mg/kg ethanol extract of leaves and pseudostems of Hedychium coronarium Koening ), and the 750 mg/kg HC group (6 rats, to be administered with 750 mg/kg ethanol extract of the leaves and pseudostems of Hedychium coronarium Koening ). The rats were fasted for 7 hours and then administered with 250 mg/kg ethanol extract of leaves and pseudostems of Hedychium coronarium Koening (the 250 mg/kg HC group), 750 mg/kg ethanol extract of leaves and pseudostems of Hedychium coronarium Koening (the 750 mg/kg HC group), 10 mg/kg glibenclamide (the positive control group), or 10% Tween 20 (the placebo/control group). After 30 minutes, each rat was administered with glucose at a total amount of 5 g/kg, orally (2.5 g/kg) and subcutaneously (2.5 g/kg). Blood was drawn from each rat at the intervals of 0, 30, 60, 90 and 120 minutes for the measurement of glucose (mg/DL). […]
The test rats and procedure were as those in Example 1. However, in this example, 24 Sprague-Dawley rats were divided into four groups: the placebo group (6 rats, to be administered with water), the positive control group (6 rats, to be administered with 10 mg/kg glibenclamide), the 0.4 g/kg HC group (6 rats, to be administered with 0.4 g/kg water-ethanol extract of leaves and pseudostems of Hedychium coronarium Koening ), and the 0.8 g/kg HC group (6 rats, to be administered with 0.8 g/kg water-ethanol extract of leaves and pseudostems of Hedychium coronarium Koening ). After 30 minutes, each rat was administered with glucose at a total amount of 5 g/kg, orally (2.5 g/kg) and subcutaneously (2.5 g/kg). Blood was drawn from each animal at 30-minute intervals for the measurement of glucose (mg/DL). […]

[1] = test system: Sprague-Dawley rats with type I diabetes; test: Insulin resistance test in rats with type I diabetes; assay type: in vivo, rat; conditions: 0.3 U/kg insulin subcutaneous
Protocol: Eighteen (18) Sprague-Dawley rats with type I diabetes were divided into three groups: the control group (6 rats, to be administered with 10% Tween 20), the insulin group (6 rats, to be subcutaneously administered with 0.3 U/kg insulin) and the insulin plus HC group (6 rats, to be subcutaneously administered with 0.3 U/kg insulin and orally administered with 1.0 g/kg of ethanol extract of leaves and pseudostems of Hedychium coronarium Koening ). The rats were fasted for 4 hours and then administered with 10% Tween 20 (the control group), 0.3 U/kg insulin (the insulin group) or 0.3 U/kg insulin plus 1.0 g/Kg of ethanol extract of leaves and pseudostems of Hedychium coronarium Koening (the insulin plus HC group). After administration of 2.5 g/kg glucose, blood was drawn from each animal at 30-minute intervals for the measurement of glucose (mg/DL).

Row | Compound | Concentration of blood glucose (Sprague-Dawley rats; Example 1, 0 min) [mg/dL] | Concentration of blood glucose (Sprague-Dawley rats; Example 1, 30 min) | Concentration of blood glucose (Sprague-Dawley rats; Example 1, 60 min) | Concentration of blood glucose (Sprague-Dawley rats; Example 1, 90 min) | Concentration of blood glucose (Sprague-Dawley rats; Example 1, 120 min) | Concentration of blood glucose (Sprague-Dawley rats; Example 9, 0 min) [mg/dL] | Concentration of blood glucose (Sprague-Dawley rats; Example 9, 30 min) | Concentration of blood glucose (Sprague-Dawley rats; Example 9, 60 min) | Concentration of blood glucose (Sprague-Dawley rats; Example 9, 90 min) | Concentration of blood glucose (Sprague-Dawley rats; Example 9, 120 min) | Concentration of blood glucose ([1]; 0 min) [mg/dL] | Concentration of blood glucose ([1]; 30 min) | Concentration of blood glucose ([1]; 60 min) | Concentration of blood glucose ([1]; 90 min)
1 | COc1ccc(Cl)cc1C(=O)NCCc1ccc(S(=O)(=O)NC(=O)NC2CCCCC2)cc1 [Glibenclamide, glibenclamide] | 99 ± 2.7 | 150.7 +/− 15.2** mg/DL | 121.4 +/− 10.2** mg/DL | 101.6 +/− 6.7** mg/DL | 83.4 +/− 2.5*** mg/DL | 94.3 ± 3.8 | 173.8 +/− 14.5*** mg/DL | 101.8 +/− 8.4*** mg/DL | 82.7 +/− 8.1*** mg/DL | 68.8 +/− 5.9*** mg/DL | – | – | – | –
2 | Insulin: insulin, subcutaneously administered at 0.3 U/kg | – | – | – | – | – | – | – | – | – | – | 522.5 ± 27.1 | 695.8 +/− 18.7** mg/DL | 593.3 +/− 16.2* mg/DL | 486.2 +/− 9.6* mg/DL
